Test results: publication doi:10.1101/423061v1, “Comparative analysis of PknB inhibitors for reactivity and toxicity” (biorxiv, 2018)

Target: PknB (Mycobacterium tuberculosis, UniProt P9WI81)
Test: ATP Glo kinase assay, GarA as protein substrate
Assay type: biochemical

Sequence of PknB (P9WI81 1-331 limits assumed): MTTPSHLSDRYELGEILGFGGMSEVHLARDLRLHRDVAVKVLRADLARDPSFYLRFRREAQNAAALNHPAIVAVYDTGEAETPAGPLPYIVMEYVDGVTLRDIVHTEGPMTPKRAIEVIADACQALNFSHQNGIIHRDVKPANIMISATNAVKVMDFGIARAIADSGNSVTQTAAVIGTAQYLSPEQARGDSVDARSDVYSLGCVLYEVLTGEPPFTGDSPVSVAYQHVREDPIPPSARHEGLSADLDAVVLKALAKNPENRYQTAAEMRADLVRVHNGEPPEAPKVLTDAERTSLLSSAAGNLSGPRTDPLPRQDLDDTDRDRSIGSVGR

With `COC(=O)/C=C/C(=O)c1ccc(OC)cc1` [YH-8, trans-Methyl-4-(4-methoxyphneyl)-4-oxobut-2-enoate] as the compound, how does the IC50 read?
The IC50 was 6.6 µM.
